Measured values reported in patent US20030207813A1, “Retroviral protease inhibitor combinations” (priority 1995, published 2003).
Converted amounts (≈) assume the structure as drawn.

Tested on: SF162R (resistant strains selected from SF162 against Example 1)
Test: Acute infectivity assay in PHA-activated donor lymphocytes, resistant isolate SF162R
Format: cell-based, HIV-1
Details: Human immunodeficiency virus 1, Lymphocyte, Table 1, read-out: Virus Isolate (EC50 ng/mL) SF162R
Description: Approximately 3×10^7 cells are activated for 48 hours with about 3-5 μg/ml PHA in RPMI continuing 10% fetal bovine serum and IL-2 (10 U/ml). Quantitated virus stocks are added to the activated lymphocyte suspension at a multiplicity of infection of about 0.001-0.01. The cell-virus suspension is incubated at 37° C. for 2 hours to allow virus absorption. The residual virus inoculum is removed by centrifugation and the cells are resuspended in RPMI containing 10% FBS and 10 U/ml IL-2. These infected cells are added to the test-article diluted in complete tissue culture medium from a stock (10 mg/ml) in DMSO in 96 well microtiter plates to give about 5×10^5 cells per well per 200 μl. Infected, untreated cells and cells treated with DMSO alone (0.1%) or either AZT or DDI were used as controls. The cultures were examined for syncytia formation on days 7 and 11 post-infection or the supernants tested for reverse transcriptase activity or p24 antigen.
RF represents the HIV-1 strain HIV-LRF and RFR represents a mixture of resistant strains obtained by selection of RF against the compound of Example 1. RFR comprises a mixture of viral strains having protease genotypes of G48V (14/40 clones); G48V, V82A (18/40 clones); G48V, L90S (2/40 clones); G48V, 154T, V82A (1/40 clones); G48M (1/40 clones); G48V, Q61H (1/40 clones); V13I, G48V (1/40 clones); G48V, F53L, V82A (1/40 clones); and G48V, V82A, C95Y (1/40 clones). RFR2 represents a mixture of resistant strains obtained by cloning RFR by three rounds of growth at limiting dilution. RFR2 comprises a mixture of viral strains having protease genotypes of G48V, V82A (13/15 clones); G17E, G48V, V82A (1/15 clones); and G48V, V82A, N37D, N88D (1/15 clones). RFRR represents a mixture of resistant strains obtained by selection of RF against the compounds of Examples 1 and 2 and then cloning by three rounds of growth at limiting dilution. RFRR comprises a mixture of viral strains having protease genotypes of G48V, 154T, L63P, V82A (7/9 clones); G48V, 154T, L63P, V82A, N88S (1/9 clones); and G48V, 154T, L63P, G73M, V82A (1/9 clones). SF162 represents the HIV-1 strain SF-162 and SF162R represents a mixture of resistant strains obtained by selection of SF162 against the compound of Example 1. SF162R comprises a mixture of viral strains having protease genotypes of M461, F53L, L63P, A71V, N88D (2/3 clones); and M46I, F53L, L63P, A71V, N88D, Q92R (1/3 clones). 89-959 represents the HIV-1 strain 89-959 and 89-959R represents a mixture of resistant strains obtained by selection of 89-959 against the compound of Example 2. 89-959R comprises a mixture of viral strains having protease genotypes of N88S (4/5 clones); and D25N, T26A, D30N, D37N, R41K, G73D, R87K, N88S (1/4 clones). NL4 represents the HIV-1 strain HIV-1NL4-3. NL4(G48V) represents a strain having a synthetically generated site-directed mutation in the protease from glycine to valine at amino acid position number 48. NL4(I84V) represents a strain having a synthetically generated site-directed mutation in the protease from isoleucine to valine at amino acid position number 84. NL4(R8Q,M46I) represents a strain having synthetically generated site-directed mutations in the protease from arginine to glutamine at amino acid position number 8 and methionine to isoleucine at amino acid position number 46. NL4(P22-538) represents a mixture of resistant strains obtained by selection of HIV-1NL4-3 against the compound of Example 10 after 22 passages comprising protease genotypes M46I, L63P, A71V, V82F, I84V (4/10); M46I, L63P, V82F, I84V (3/10); and M46I, A71V, V82F, I84V (3/10). NL4(P37-538) represents resistant strains obtained by selection of HIV-1NL4-3 against the compound of Example 10 after 37 passages comprising protease genotype M46I, L63P, A71V, 184A. NL4(538/524) represents resistant strains obtained by selection of NL4(P22-538) against the compound of Example 5 after 24 passages comprising protease genotype M46I, L63P, A71V, 184A. […]

First: CNCC(=O)N[C@H](C(=O)N[C@@H](Cc1ccccc1)[C@H](O)CN(CCC(C)C)C(=O)NC(C)(C)C)C(C)(C)C [Example 2, (2R,3S)-3-(N-methylaminoacetyl-L-tert-butylglycinyl)amino-1-(N-isoamyl-N-(tert-butylcarbamoyl))amino-4-phenyl-2-butanol]
Second: CC(C)CN(C[C@@H](O)[C@H](Cc1ccccc1)NC(=O)[C@H](CC(N)=O)NC(=O)c1ccc2ccccc2n1)C(=O)NC(C)(C)C (relative stereo) [Example 1, [1S-[1R*(R*),2S*]]-N^1-[3-[[[(1,1-dimethylethyl)amino]carbonyl])2-methylpropyl)amino]-2-hydroxy-1-(phenylmethyl)propyl]-2-[(2-quinolinylcarbonyl)amino]-butanediamide]
The EC50 of the first is 74-fold lower: 6 ng/mL (≈ 0.0112 µM) for the first, 443 ng/mL (≈ 0.733 µM) for the second.

`CC(C)(C)NC(=O)[C@@H]1CC2CCCC[C@@H]2CN1C[C@@H](O)[C@H](Cc1ccccc1)NC(=O)[C@H](CC(N)=O)NC(=O)c1ccc2ccccc2n1` (stereo in doubt) [Example 6, N-tert-Butyl decahydro-2-[2(R)-hydroxy-4-phenyl-3(S)-[[N-(2-quinolylcarbonyl)-L-asparaginyl]amino]butyl]-(4aR,8aS)-isoquinoline-3(S)-carboxamide] was tested, and the EC50 was 11 ng/mL (≈ 0.0164 µM).

Same assay, conditions: Human immunodeficiency virus 1, Lymphocyte, Table 2, read-out: Virus Isolate (EC50 ng/mL) SF162R

`CC(C)CCN(C[C@@H](O)[C@H](Cc1ccccc1)NC(=O)[C@H](CC(N)=O)NC(=O)c1ccc2ccccc2n1)C(=O)NC(C)(C)C` (relative stereo) [Example 7, [1S-[1R*(R*),2S*]]-N^1-[3-[[[(1,1-dimethylethyl)amino]carbonyl](3-methylbutyl)amino]-2-hydroxy-1-(phenylmethyl)propyl]-2-[(2-quinolinylcarbonyl)amino]-butanediamide] and `CC(C)CN(C[C@@H](O)[C@H](Cc1ccccc1)NC(=O)[C@H](CC(N)=O)NC(=O)c1ccc2ccccc2n1)C(=O)NC(C)(C)C` (relative stereo) [Example 1, [1S-[1R*(R*),2S*]]-N^1-[3-[[[(1,1-dimethylethyl)amino]carbonyl])2-methylpropyl)amino]-2-hydroxy-1-(phenylmethyl)propyl]-2-[(2-quinolinylcarbonyl)amino]-butanediamide] are within 1.5-fold of each other in EC50: 108 ng/mL (≈ 0.175 µM) for the first, 111 ng/mL (≈ 0.184 µM) for the second.

Molecule `CC(C)CN(C[C@@H](O)[C@H](Cc1ccccc1)NC(=O)[C@H](CC(N)=O)NC(=O)c1ccc2ccccc2n1)S(=O)(=O)NC(C)(C)C` [Example 8, N-[3-[N^2-[N^1-(1,1-dimethylethyl)aminosulfonyl]-N^2-(2-methylpropyl)amino]-2R-hydroxy-1S-(phenylmethyl)propyl]-2S-[(2-quinolinylcarbonyl)amino]butanediamide] has an EC50 of 98 ng/mL (≈ 0.153 µM).
